A word on the IC50: it is the point on the concentration scale where inhibition reaches its midpoint.

Holding throughout (type): biochemical
Common to all, as to details: 5 μM substrate, 2 hours at room temperature

The target in experiment [1] is Human recombinant full length HDAC6 (Homo sapiens (Human), UniProt Q9UBN7). The experiment can be described thus: HDAC6 assay (Test 3), acetyl-Gly-Ala-Lys(acetyl)-AMC substrate. The procedure:
(§1) Human recombinant HDAC4 was expressed in full length form (aa 2-1084) in Sf9 insect cells (obtained from ATCC) using baculovirus generated with Bac-to-Bac system (Invitrogen). Test compounds were serially diluted to reach final test concentrations from 0.000128 μM to 10 μM. HDAC4 and test compounds were incubated in 25 mM Tris buffer pH 8.0 containing 137 mM NaCl, 2.7 mM KCl, 1 mM MgCl2, 0.05% (w/v) bovine serum albumine and 0.005% (v/v) Triton-X-100 for 2 hours at room temperature in presence of 5 μM of acetyl-Gly-Ala-Lys(ε-trifluoroacetyl)-AMC (AMC=7-amino-4-methyl coumarin) in a final volume of 9 μl. Control wells with HDAC4 only (positive control) and without HDAC4 (negative control) were included on the microplate. Bovine trypsin (4.5 μl of a 300 nM solution) was added and the plate incubated for additional 15 minutes at room temperature. The plate was placed in a fluorescence microplate reader, and read at an excitation wavelength of 360 nm and an emission wavelength of 450 nm with a 10 nm bandpath. Fluorescence values for all wells containing HDAC4 (positive control and wells with test compound) were corrected by subtracting negative control fluorescence values, and IC50 values were calculated by fitting the dose-response curves to a 4-parameter logistic function.
Test 3: HDAC6 Assay Description
A similar assay procedure as described in Test 1 was used for HDAC6. Human recombinant full length HDAC6 expressed in a baculovirus expression system was purchased from BPS BioSciences (San Diego, Calif., U.S.A.). The substrate used in the […] assay was 5 μM of acetyl-Gly-Ala-Lys (acetyl)-AMC.

Another experiment deals with Human recombinant HDAC4 (Homo sapiens (Human), UniProt P56524). The experiment can be described thus: HDAC4 assay (Test 1), fluorescence, acetyl-Gly-Ala-Lys(ε-trifluoroacetyl)-AMC substrate. On the procedure:
Test 1: HDAC4 Assay Description
as §1

Experiment [2] has as its target Human recombinant full length HDAC1 (Homo sapiens (Human), UniProt Q13547). Briefly: HDAC1 assay (Test 2), acetyl-Gly-Ala-Lys(acetyl)-AMC substrate. On the procedure: as §1
Test 2: HDAC1 Assay Description
A similar assay procedure as described in Test 1 was used for HDAC1. Human recombinant full length HDAC1 expressed in a baculovirus expression system was purchased from BPS BioSciences (San Diego, Calif., U.S.A.). The substrate used in the […] assay was 5 μM of acetyl-Gly-Ala-Lys(acetyl)-AMC.

Human recombinant full length HDAC1, sequence (Q13547 whole entry): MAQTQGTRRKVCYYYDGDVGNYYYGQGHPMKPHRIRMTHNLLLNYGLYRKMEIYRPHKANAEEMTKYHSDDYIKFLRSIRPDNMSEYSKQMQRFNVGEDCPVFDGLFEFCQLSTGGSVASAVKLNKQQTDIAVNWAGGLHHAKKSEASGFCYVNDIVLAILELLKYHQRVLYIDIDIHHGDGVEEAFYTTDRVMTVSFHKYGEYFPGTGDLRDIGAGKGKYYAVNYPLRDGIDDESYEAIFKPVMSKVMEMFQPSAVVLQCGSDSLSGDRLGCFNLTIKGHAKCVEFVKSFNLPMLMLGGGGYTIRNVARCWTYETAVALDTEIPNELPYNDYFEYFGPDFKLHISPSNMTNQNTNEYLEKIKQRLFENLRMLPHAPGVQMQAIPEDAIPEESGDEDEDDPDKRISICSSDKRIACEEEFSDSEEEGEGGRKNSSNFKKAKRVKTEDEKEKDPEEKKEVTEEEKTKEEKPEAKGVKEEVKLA
Human recombinant full length HDAC6, sequence (Q9UBN7 whole entry, the tested form may be a part): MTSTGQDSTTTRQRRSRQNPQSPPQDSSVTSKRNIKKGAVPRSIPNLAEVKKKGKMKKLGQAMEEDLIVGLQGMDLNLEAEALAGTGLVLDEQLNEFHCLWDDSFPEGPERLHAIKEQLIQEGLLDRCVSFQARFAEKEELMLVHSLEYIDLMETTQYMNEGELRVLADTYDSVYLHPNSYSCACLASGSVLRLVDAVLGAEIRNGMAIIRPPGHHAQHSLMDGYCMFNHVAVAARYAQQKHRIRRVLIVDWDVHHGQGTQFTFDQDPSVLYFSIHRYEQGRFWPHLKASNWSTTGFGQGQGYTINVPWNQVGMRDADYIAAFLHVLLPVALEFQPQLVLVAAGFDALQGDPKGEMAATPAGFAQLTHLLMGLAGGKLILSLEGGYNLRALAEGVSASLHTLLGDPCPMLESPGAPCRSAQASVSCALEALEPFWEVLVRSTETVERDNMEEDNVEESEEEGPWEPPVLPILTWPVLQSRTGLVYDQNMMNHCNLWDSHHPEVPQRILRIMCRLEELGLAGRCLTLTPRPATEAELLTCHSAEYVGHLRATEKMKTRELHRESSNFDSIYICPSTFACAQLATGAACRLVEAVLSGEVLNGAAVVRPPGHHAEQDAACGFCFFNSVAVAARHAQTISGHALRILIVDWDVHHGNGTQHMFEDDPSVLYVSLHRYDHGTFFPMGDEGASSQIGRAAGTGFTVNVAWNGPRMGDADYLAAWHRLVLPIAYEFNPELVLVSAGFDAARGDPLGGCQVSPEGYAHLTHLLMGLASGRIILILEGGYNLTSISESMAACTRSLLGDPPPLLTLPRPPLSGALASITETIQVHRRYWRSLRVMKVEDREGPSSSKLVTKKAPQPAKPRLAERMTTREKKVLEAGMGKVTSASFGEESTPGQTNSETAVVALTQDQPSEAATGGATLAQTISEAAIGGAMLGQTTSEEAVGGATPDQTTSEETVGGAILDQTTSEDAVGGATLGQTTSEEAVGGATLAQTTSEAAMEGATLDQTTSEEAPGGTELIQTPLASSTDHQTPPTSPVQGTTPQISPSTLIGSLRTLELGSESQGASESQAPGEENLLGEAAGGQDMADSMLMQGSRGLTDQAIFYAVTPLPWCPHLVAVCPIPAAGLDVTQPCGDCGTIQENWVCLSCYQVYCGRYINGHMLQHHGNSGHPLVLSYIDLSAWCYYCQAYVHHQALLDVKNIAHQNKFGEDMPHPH
Human recombinant HDAC4, sequence (P56524 2-1084): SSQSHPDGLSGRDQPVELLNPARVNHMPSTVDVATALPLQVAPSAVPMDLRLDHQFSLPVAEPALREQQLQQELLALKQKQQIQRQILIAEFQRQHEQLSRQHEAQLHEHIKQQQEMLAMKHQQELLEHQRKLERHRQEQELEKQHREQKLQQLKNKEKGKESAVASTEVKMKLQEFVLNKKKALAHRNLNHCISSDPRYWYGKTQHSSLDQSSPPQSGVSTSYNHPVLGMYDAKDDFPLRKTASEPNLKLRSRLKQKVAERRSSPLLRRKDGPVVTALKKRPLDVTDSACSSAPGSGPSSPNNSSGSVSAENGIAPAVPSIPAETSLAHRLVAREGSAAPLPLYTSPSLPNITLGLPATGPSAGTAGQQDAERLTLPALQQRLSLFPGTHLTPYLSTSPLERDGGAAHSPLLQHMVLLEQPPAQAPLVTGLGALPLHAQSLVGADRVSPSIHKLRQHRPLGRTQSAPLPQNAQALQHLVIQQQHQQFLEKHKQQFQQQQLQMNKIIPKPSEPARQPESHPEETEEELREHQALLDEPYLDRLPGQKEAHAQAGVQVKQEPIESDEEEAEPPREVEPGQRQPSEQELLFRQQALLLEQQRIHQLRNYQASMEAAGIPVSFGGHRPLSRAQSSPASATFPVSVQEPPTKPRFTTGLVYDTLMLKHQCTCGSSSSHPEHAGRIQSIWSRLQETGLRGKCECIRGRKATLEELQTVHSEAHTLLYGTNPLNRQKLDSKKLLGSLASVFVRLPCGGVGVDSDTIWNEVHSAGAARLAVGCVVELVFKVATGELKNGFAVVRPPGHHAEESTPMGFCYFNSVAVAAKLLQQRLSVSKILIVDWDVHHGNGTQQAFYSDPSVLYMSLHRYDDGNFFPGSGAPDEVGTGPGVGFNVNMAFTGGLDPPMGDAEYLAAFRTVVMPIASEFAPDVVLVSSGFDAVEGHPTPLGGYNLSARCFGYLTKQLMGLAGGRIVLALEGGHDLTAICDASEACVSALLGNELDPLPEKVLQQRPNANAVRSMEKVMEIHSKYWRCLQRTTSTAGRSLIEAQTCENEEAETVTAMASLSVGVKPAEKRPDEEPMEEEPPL

`C[C@@H](Nc1ncc(-c2noc(C(F)(F)F)n2)cc1Cl)c1ccccc1` [Example 34, (R)-3-chloro-N-(1-phenylethyl)-5-(5-(trifluoromethyl)-1,2,4-oxadiazol-3-yl)pyridin-2-amine]: the half-inhibitory concentration (IC50) in experiment [1] was determined as 4.5 µM; on Human recombinant HDAC4, 0.047 µM; in experiment [2], 6.3 µM.
Taken in the same sequence, the figures for `C[C@H](CN(C)C)NC(=O)c1ccc(-c2noc(C(F)(F)F)n2)nc1` [Example 18, (R)—N-(1-(dimethylamino)propan-2-yl)-6-(5-(trifluoromethyl)-1,2,4-oxadiazol-3-yl)nicotinamide] were more than 10 µM, 0.25 µM and more than 10 µM.
Taken in the same sequence, the figures for `CC(CN(C)C)NC(=O)c1ccc(-c2noc(C(F)(F)F)n2)nc1` (stereo not drawn) [Example 19, N-(1-(dimethylamino)propan-2-yl)-6-(5-(trifluoromethyl)-1,2,4-oxadiazol-3-yl)nicotinamide] were more than 10 µM, 0.35 µM and 1.7 µM.
Taken in the same sequence, the figures for `FC(F)(F)c1nc(-c2ccc(NCc3ccccc3)nn2)no1` [Example 40, N-benzyl-6-(5-(trifluoromethyl)-1,2,4-oxadiazol-3-yl)pyridazin-3-amine] were 0.84 µM, 0.2 µM and 7.9 µM.
Consider `FC(F)(F)c1nc(-c2ncc(NCc3ccncc3)cn2)no1` [Example 43, N-(Pyridin-4-ylmethyl)-2-(5-(trifluoromethyl)-1,2,4-oxadiazol-3-yl)pyrimidin-5-amine], for which the half-maximal inhibitory concentration (IC50) in experiment [1] worked out at 1.1 µM; on Human recombinant HDAC4, 0.19 µM; in experiment [2] it was 4.7 µM.
Taken in the same sequence, the figures for `FC(F)(F)c1nc(-c2ccc(NCc3ccccc3)nc2)no1` [Example 28, N-benzyl-5-(5-(trifluoromethyl)-1,2,4-oxadiazol-3-yl)pyridin-2-amine] were 3 µM, 0.073 µM and more than 10 µM.
Taken in the same sequence, the figures for `C[C@@H](Nc1cnc(-c2noc(C(F)(F)F)n2)nc1)c1ccccc1` [Example 41, (R)—N-(1-Phenylethyl)-2-(5-(trifluoromethyl)-1,2,4-oxadiazol-3-yl)pyrimidin-5-amine] were 1.3 µM, 0.06 µM and 4 µM.
As for `Cc1ccc(CNc2ncc(-c3noc(C(F)(F)F)n3)cn2)cn1` [Example 8, N-((6-methylpyridin-3-yl)methyl)-5-(5-(trifluoromethyl)-1,2,4-oxadiazol-3-yl)pyrimidin-2-amine], the half-inhibitory concentration (IC50) in experiment [1] was 0.25 µM; at Human recombinant HDAC4, 0.025 µM; in experiment [2], 3 µM.
Taken in the same sequence, the figures for `CC[C@@H](Nc1ncc(-c2noc(C(F)(F)F)n2)cn1)c1ccccc1` [Example 13, (R)—N-(1-phenylpropyl)-5-(5-(trifluoromethyl)-1,2,4-oxadiazol-3-yl)pyrimidin-2-amine] were 0.14 µM, 0.022 µM and 1.7 µM.
The matching figures for `FC(F)(F)c1nc(-c2ccc(NCc3ccncc3)nc2)no1` [Example 31, N-(pyridin-4-ylmethyl)-5-(5-(trifluoromethyl)-1,2,4-oxadiazol-3-yl)pyridin-2-amine]: 1.6 µM, 0.041 µM and 4.5 µM.
The matching figures for `FC(F)(F)c1nc(-c2cnc(NCc3cccnc3)c(Cl)c2)no1` [Example 37, 3-chloro-N-(pyridin-3-ylmethyl)-5-(5-(trifluoromethyl)-1,2,4-oxadiazol-3-yl)pyridin-2-amine]: 2 µM, 0.019 µM and 1.2 µM.
As to `CN(Cc1ccncc1)c1ncc(-c2noc(C(F)(F)F)n2)cn1` [Example 3, N-methyl-N-(pyridin-4-ylmethyl)-5-(5-(trifluoromethyl)-1,2,4-oxadiazol-3-yl)pyrimidin-2-amine], the figures for the IC50 (in experiment [1]; on Human recombinant HDAC4; in experiment [2]) were 6.7 µM, 0.039 µM and 3.2 µM, respectively.

The record behind these values is patent US9670193B2 (Novartis AG, priority 2011, dated 2017).
